Reference: patent US12509452B2, “Substituted-isoxazoline-containing aromatic compound, preparation method therefor, herbicidal composition and use thereof” (QINGDAO KINGAGROOT CHEMICAL COMPOUND CO., LTD., priority 2019, dated 2025)

Key:
Assay in all cases: weeding effect in post-emergence stage
Format in all cases: in vivo
Conditions in all cases: dose 15 g a.i./ha
Rorippa indica = tested on: Rorippa indica
Summary of the method: (§1)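 Potted weeds were sown, covered with 0.5-2 cm soil and grown in a greenhouse, then sprayed at the 2-3 leaf stage (2 weeks after sowing) via spray tower; compounds in acetone with Tween 80 and 1.5 liter/ha methyl oleate concentrate; doses 500-7.5 g a.i./ha. Fresh-weight control scored on 0-5 levels after 3 weeks; triplicate means.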

Alopecurus japonicus = tested on: Alopecurus japonicus
Summary of the method: as §1

Conyza japonica = tested on: Conyza japonica
Summary of the method: as §1

Beckmannia syzigachne = tested on: Beckmannia syzigachne
Summary of the method: as §1

| SMILES | weeding effect in post-emergence stage, Rorippa indica (activity level) (Rorippa indica) | weeding effect in post-emergence stage, Alopecurus japonicus (activity level) (Alopecurus japonicus) | weeding effect in post-emergence stage, Conyza japonica (activity level) (Conyza japonica) | weeding effect in post-emergence stage, Beckmannia syzigachne (activity level) (Beckmannia syzigachne) |
| --- | --- | --- | --- | --- |
| CC#CCOC(=O)C1(C)CC(c2cc(-n3c(=O)n(C)c(=S)n(C)c3=O)c(F)cc2Cl)=NO1 (stereo not drawn) [Compound 1-80] | 5 (Level 5: growth control rate is above 85%) | 5 (Level 5: growth control rate is above 85%) | 5 (Level 5: growth control rate is above 85%) | 5 (Level 5: growth control rate is above 85%) |
| C#CCCOC(=O)C1(C)CC(c2cc(-n3c(=O)n(C)c(=S)n(C)c3=O)c(F)cc2Cl)=NO1 (stereo not drawn) [Compound 1-81] | 5 (Level 5: growth control rate is above 85%) | 5 (Level 5: growth control rate is above 85%) | 5 (Level 5: growth control rate is above 85%) | 5 (Level 5: growth control rate is above 85%) |
| C#CC(C)OC(=O)C1(C)CC(c2cc(-n3c(=O)n(C)c(=S)n(C)c3=O)c(F)cc2Cl)=NO1 (stereo not drawn) [Compound 1-82] | 5 (Level 5: growth control rate is above 85%) | 5 (Level 5: growth control rate is above 85%) | 5 (Level 5: growth control rate is above 85%) | 5 (Level 5: growth control rate is above 85%) |
| Cn1c(=S)n(C)c(=O)n(-c2cc(C3=NOC(C)(C(=O)OC4CC4)C3)c(Cl)cc2F)c1=O (stereo not drawn) [Compound 1-83] | 5 (Level 5: growth control rate is above 85%) | 5 (Level 5: growth control rate is above 85%) | 5 (Level 5: growth control rate is above 85%) | 5 (Level 5: growth control rate is above 85%) |
| Cn1c(=S)n(C)c(=O)n(-c2cc(C3=NOC(C)(C(=O)OCC4CC4)C3)c(Cl)cc2F)c1=O (stereo not drawn) [Compound 1-84] | 5 (Level 5: growth control rate is above 85%) | 5 (Level 5: growth control rate is above 85%) | 5 (Level 5: growth control rate is above 85%) | 5 (Level 5: growth control rate is above 85%) |
| Cn1c(=S)n(C)c(=O)n(-c2cc(C3=NOC(C)(C(=O)OCC(F)F)C3)c(Cl)cc2F)c1=O (stereo not drawn) [Compound 1-86] | 5 (Level 5: growth control rate is above 85%) | 5 (Level 5: growth control rate is above 85%) | 5 (Level 5: growth control rate is above 85%) | 5 (Level 5: growth control rate is above 85%) |
| Cn1c(=S)n(C)c(=O)n(-c2cc(C3=NOC(C)(C(=O)OCC(F)(F)F)C3)c(Cl)cc2F)c1=O (stereo not drawn) [Compound 1-87] | 5 (Level 5: growth control rate is above 85%) | 5 (Level 5: growth control rate is above 85%) | 5 (Level 5: growth control rate is above 85%) | 5 (Level 5: growth control rate is above 85%) |
| Cn1c(=S)n(C)c(=O)n(-c2cc(C3=NOC(C)(C(=O)OCCCF)C3)c(Cl)cc2F)c1=O (stereo not drawn) [Compound 1-88] | 5 (Level 5: growth control rate is above 85%) | 5 (Level 5: growth control rate is above 85%) | 5 (Level 5: growth control rate is above 85%) | 5 (Level 5: growth control rate is above 85%) |
| Cn1c(=S)n(C)c(=O)n(-c2cc(C3=NOC(C)(C(=O)OCC(C)(F)F)C3)c(Cl)cc2F)c1=O (stereo not drawn) [Compound 1-89] | 5 (Level 5: growth control rate is above 85%) | 5 (Level 5: growth control rate is above 85%) | 5 (Level 5: growth control rate is above 85%) | 5 (Level 5: growth control rate is above 85%) |
| Cn1c(=S)n(C)c(=O)n(-c2cc(C3=NOC(C)(C(=O)OCCC(F)(F)F)C3)c(Cl)cc2F)c1=O (stereo not drawn) [Compound 1-90] | 5 (Level 5: growth control rate is above 85%) | 5 (Level 5: growth control rate is above 85%) | 5 (Level 5: growth control rate is above 85%) | 5 (Level 5: growth control rate is above 85%) |
| Cn1c(=S)n(C)c(=O)n(-c2cc(C3=NOC(C)(C(=O)OCC=CCl)C3)c(Cl)cc2F)c1=O (stereo not drawn) [Compound 1-92] | 5 (Level 5: growth control rate is above 85%) | 5 (Level 5: growth control rate is above 85%) | 5 (Level 5: growth control rate is above 85%) | 5 (Level 5: growth control rate is above 85%) |
| CCOC(=O)CCC1(C)CC(c2cc(-n3c(=O)n(C)c(=S)n(C)c3=O)c(F)cc2Cl)=NO1 (stereo not drawn) [Compound 1-94] | 5 (Level 5: growth control rate is above 85%) | 5 (Level 5: growth control rate is above 85%) | 5 (Level 5: growth control rate is above 85%) | 5 (Level 5: growth control rate is above 85%) |
| CCOC(=O)CCCC1(C)CC(c2cc(-n3c(=O)n(C)c(=S)n(C)c3=O)c(F)cc2Cl)=NO1 (stereo not drawn) [Compound 1-96] | 5 (Level 5: growth control rate is above 85%) | 5 (Level 5: growth control rate is above 85%) | 5 (Level 5: growth control rate is above 85%) | 5 (Level 5: growth control rate is above 85%) |
| CCOC(=O)C1ON=C(c2cc(-n3c(=O)n(C)c(=S)n(C)c3=O)c(F)cc2Cl)C1C (stereo not drawn) [Compound 1-98] | 5 (Level 5: growth control rate is above 85%) | 5 (Level 5: growth control rate is above 85%) | 5 (Level 5: growth control rate is above 85%) | 5 (Level 5: growth control rate is above 85%) |
| CCOC(=O)C1ON=C(c2cc(-n3c(=O)n(C)c(=S)n(C)c3=O)c(F)cc2Cl)C1C(F)(F)F (stereo not drawn) [Compound 1-99] | 5 (Level 5: growth control rate is above 85%) | 5 (Level 5: growth control rate is above 85%) | 5 (Level 5: growth control rate is above 85%) | 5 (Level 5: growth control rate is above 85%) |
| CCOC(=O)C1ON=C(c2cc(-n3c(=O)n(C)c(=S)n(C)c3=O)c(F)cc2Cl)C1C(=O)OCC (stereo not drawn) [Compound 1-100] | 5 (Level 5: growth control rate is above 85%) | 5 (Level 5: growth control rate is above 85%) | 5 (Level 5: growth control rate is above 85%) | 5 (Level 5: growth control rate is above 85%) |
| CCOC(=O)C1(C)ON=C(c2cc(-n3c(=O)n(C)c(=S)n(C)c3=O)c(F)cc2Cl)C1C (stereo not drawn) [Compound 1-101] | 5 (Level 5: growth control rate is above 85%) | 5 (Level 5: growth control rate is above 85%) | 5 (Level 5: growth control rate is above 85%) | 5 (Level 5: growth control rate is above 85%) |
| CCOC(=O)C1(C)CC(c2cc(-n3c(=O)n(C)c(=S)n(C)c3=O)c(F)cc2Cl)=NO1 (stereo not drawn) [Control compound A, reference compound] | 2 (Level 2: growth control rate is greater than or equal to 20% and less than 40%) | 3 (Level 3: growth control rate is greater than or equal to 40% and less than 60%) | 2 (Level 2: growth control rate is greater than or equal to 20% and less than 40%) | 2 (Level 2: growth control rate is greater than or equal to 20% and less than 40%) |
